Calls of active or inactive are those of the source. The rule behind the calls is not given here.

From ChEMBL document CHEMBL4699520, “A guanidinium-based inhibitor of a type I isopentenyl diphosphate isomerase” (Bioorg Med Chem Lett, 2020) come the findings set out here.

Assay [1] can be described thus: Competitive inhibition of recombinant N-terminal hexaHis-tagged Staphylococcus aureus MS4 DSQS expressed in Escherichia coli Rosetta(DE3) using varying levels of FPP as substrate by Line weaver Burk plot analysis.
Assay [2] is described as follows: Inhibition of 4-DMATS (unknown origin).
Assay [3] can be described thus: Competitive inhibition of full-length N-terminal hexaHis-tagged Escherichia coli type 1 IDI using varying levels of IPP as substrate by Line weaver Burk plot analysis.
Assay [4] can be described thus: Inhibition of full-length N-terminal hexaHis-tagged Escherichia coli type 1 IDI using IPP as substrate by enzyme coupled assay.
The target of assay [5] is T1, Farnesyl pyrophosphate synthase (Homo sapiens, UniProt P14324).
T1 sequence (P14324 whole entry): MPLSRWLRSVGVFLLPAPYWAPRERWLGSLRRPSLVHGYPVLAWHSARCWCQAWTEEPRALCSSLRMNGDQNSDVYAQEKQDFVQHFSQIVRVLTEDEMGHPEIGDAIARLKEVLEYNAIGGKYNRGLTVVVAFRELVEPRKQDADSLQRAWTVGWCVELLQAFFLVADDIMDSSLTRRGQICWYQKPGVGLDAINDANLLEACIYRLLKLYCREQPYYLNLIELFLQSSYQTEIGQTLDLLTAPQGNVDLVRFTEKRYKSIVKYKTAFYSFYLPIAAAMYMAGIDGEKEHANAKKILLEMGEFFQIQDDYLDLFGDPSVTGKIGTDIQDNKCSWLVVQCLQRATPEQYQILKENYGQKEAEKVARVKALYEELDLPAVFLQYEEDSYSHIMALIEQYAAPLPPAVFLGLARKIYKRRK
Nature of the assay: Inhibition of N-terminal hexaHis-tagged human FPPS (6 to 353 residues) expressed in Escherichia coli using GPP and IPP as substrate by enzyme coupled assay.

Assay [6] concerns Claviceps purpurea. The assay can be described thus: Inhibition of Claviceps purpurea type 1 IDI.

With `CC(C)=CCC/C(C)=C/CC/[N+](C)=C/NCP(=O)(O)CP(=O)([O-])O`, the Ki in assay [1] came to 4.2 µM.

On to `CC(=O)NCP(=O)(O)CP(=O)(O)O`, for which the inhibition result in assay [2] is “inactive”. Also, the Ki in assay [3] was found to be 51.7 µM. Also, the IC50 in assay [4] came to 190 µM; in assay [5], 177 µM.

As for `NC(N)=NCP(=O)(O)CP(=O)(O)O`, the inhibition result in assay [2] is “inactive”. In addition, in assay [3], the Ki was determined as 0.12 µM. Further, the IC50 was 0.3 µM in assay [4] and 233 µM in assay [5].

`CC(C)CCCC(C)CCCN(C)C(=O)NCP(=O)(O)CP(=O)(O)O` (stereo unspecified): in assay [1], the Ki was 0.61 µM.

Take `NCP(=O)(O)CP(=O)(O)O`: the inhibition result in assay [2] was “inactive”. This compound registered a Ki in assay [3] of 4.2 µM. Besides, the IC50 in assay [4] is 15 µM; in assay [5] it was 150 µM.

Take `CC(C)=CCC/C(C)=C/CC/[N+](C)=C(\N)NCP(=O)(O)CP(=O)([O-])O`: in assay [1], the Ki is 1.9 µM.

Regarding `CN(C)CCOP(=O)(O)OP(=O)(O)O`, the Kdiss in assay [6] was < 1.2 10^-10M.

One may read the Ki as a dissociation constant, usually derived from enzyme kinetics or from competition with a known ligand. The term IC50 denotes the concentration that inhibits the measured activity by half. High values mean a need for much substance, low ones inhibition by little substance.
